Results published in ChEMBL document CHEMBL5096162, “A review on ferulic acid and analogs based scaffolds for the management of Alzheimer's disease” (Eur J Med Chem, 2021).
Blank lines part the entries; values can stand above or below the molecule they belong to.

Experiments:
[1] = molecular target: T1, Amine oxidase [flavin-containing] B (Homo sapiens, UniProt P27338); test: Inhibition of recombinant human MAO-B using kynuramine as substrate preincubated for 15 mins followed by enzyme addition and further incubated for 20 mins by fluorescence microplate reader analysis
T1 sequence (P27338 whole entry): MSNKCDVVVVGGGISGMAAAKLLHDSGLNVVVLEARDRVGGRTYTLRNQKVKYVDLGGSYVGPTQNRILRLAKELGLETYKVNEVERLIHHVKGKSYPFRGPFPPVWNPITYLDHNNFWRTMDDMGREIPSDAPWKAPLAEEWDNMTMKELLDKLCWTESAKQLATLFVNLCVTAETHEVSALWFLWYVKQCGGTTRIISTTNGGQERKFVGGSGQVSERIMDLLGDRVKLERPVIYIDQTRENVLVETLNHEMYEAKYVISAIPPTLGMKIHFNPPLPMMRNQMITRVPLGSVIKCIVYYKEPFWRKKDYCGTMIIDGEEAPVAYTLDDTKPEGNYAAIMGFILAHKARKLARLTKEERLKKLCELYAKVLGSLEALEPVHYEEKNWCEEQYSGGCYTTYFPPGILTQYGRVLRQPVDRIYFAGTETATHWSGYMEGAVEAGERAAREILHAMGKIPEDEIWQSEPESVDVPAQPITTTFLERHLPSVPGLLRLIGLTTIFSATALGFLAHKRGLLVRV

Acetylcholinesterase [2] = molecular target: Acetylcholinesterase (Homo sapiens, UniProt P22303); test: Inhibition of human AchE preincubated for 15 mins followed by substrate addition and measured for 5 mins using acetylthiocholine iodide as substrate by DTNB reagent based Ellman's method
[3] = molecular target: Amyloid-beta precursor protein (Homo sapiens) (UniProt P05067); test: Inhibition of self-induced amyloid beta (1 to 42) (unknown origin) aggregation at 20 uM incubated for 46 to 48 hrs in dark by ThT-based fluorimetric assay; details: time 46-48 hrs
Cholinesterase [4] = molecular target: Cholinesterase (Equus caballus, UniProt P81908); test: Inhibition of equine serum BuchE preincubated for 6 mins followed by substrate addition using butyrylthiocholine iodide as substrate by DTNB reagent based Ellman method
Cholinesterase [5] = molecular target: T2, Cholinesterase (Homo sapiens, UniProt P06276)
Description: Inhibition of human BuchE preincubated for 6 mins followed by substrate addition using butyrylthiocholine iodide as substrate by DTNB reagent based Ellman method

PC-12 = test: Neuroprotective activity against amyloid beta (1 to 42)-induced cytotoxicity in rat PC-12 cells assessed as increase in cell viability at 50 uM preincubated for 2 hrs followed by amyloid beta (1 to 42) stimulation and measured after 24 hrs by MTT assay; assay type: functional; details: time 26 hrs
[6] = molecular target: T1, Amine oxidase [flavin-containing] B; test: Inhibition of human MAO-B using p-tyramine as substrate preincubated for 15 mins followed by susbtrate addition and measured after 15 mins by HRP and Amplex Red reagent based fluorometric analysis
[7] = molecular target: T3, Amine oxidase [flavin-containing] A (Homo sapiens, UniProt P21397); test: Inhibition of human MAO-A using p-tyramine as substrate preincubated for 15 mins followed by susbtrate addition and measured after 15 mins by HRP and Amplex Red reagent based fluorometric analysis
T3 sequence (P21397 whole entry): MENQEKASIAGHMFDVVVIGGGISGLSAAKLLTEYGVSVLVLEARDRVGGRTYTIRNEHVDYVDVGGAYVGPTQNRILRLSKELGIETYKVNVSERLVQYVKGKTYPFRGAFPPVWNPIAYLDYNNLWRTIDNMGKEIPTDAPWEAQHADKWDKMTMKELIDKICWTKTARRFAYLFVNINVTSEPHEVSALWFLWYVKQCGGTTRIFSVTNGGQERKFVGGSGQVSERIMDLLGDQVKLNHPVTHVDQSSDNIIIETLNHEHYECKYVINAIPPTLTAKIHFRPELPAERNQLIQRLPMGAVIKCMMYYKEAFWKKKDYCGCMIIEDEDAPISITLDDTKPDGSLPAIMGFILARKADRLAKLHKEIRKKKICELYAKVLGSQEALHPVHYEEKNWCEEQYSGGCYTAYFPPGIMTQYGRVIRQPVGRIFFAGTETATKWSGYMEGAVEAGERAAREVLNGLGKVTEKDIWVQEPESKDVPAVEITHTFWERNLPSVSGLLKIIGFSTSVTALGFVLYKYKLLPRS

[8] = molecular target: Amyloid-beta precursor protein (Homo sapiens) (UniProt P05067); test: Inhibition of self-induced amyloid beta (1 to 40) (unknown origin) aggregation at 20 uM incubated for 48 hrs by ThT-based fluorimetric assay
SH-SY5Y = test: Neuroprotective activity against H2O2-induced cytotoxicity in human SH-SY5Y cells assessed as increase in cell viability at 10 uM preincubated for 24 hrs followed by H2O2 stimulation and measured after 24 hrs by MTS assay; assay type: functional; details: time 48 hrs
[9] = Antioxidant activity assessed as DPPH radical scavenging activity at 200 uM incubated for 2 hrs in dark by spectrophotometric analysis; assay type: functional
[10] = Antioxidant activity of compound assessed as trolox equivalent of AAPH radical scavenging activity preincubated for 15 mins followed by AAPH addition and measured every 1 min for 60 mins by ORAC-FL assay; assay type: functional; details: time 75.0 min
Acetylcholinesterase [11] = molecular target: Acetylcholinesterase (Electrophorus electricus, UniProt O42275); test: Inhibition of electric eel AchE preincubated for 30 mins followed by substrate addition using acetylthiocholine iodide as substrate by Ellman's method
Cholinesterase [12] = molecular target: T2, Cholinesterase; test: Inhibition of human BuchE preincubated for 30 mins followed by substrate addition using butyrylthiocholine iodide as substrate by Ellman's method

Amyloid-beta precursor protein (Homo sapiens), sequence (P05067 whole entry): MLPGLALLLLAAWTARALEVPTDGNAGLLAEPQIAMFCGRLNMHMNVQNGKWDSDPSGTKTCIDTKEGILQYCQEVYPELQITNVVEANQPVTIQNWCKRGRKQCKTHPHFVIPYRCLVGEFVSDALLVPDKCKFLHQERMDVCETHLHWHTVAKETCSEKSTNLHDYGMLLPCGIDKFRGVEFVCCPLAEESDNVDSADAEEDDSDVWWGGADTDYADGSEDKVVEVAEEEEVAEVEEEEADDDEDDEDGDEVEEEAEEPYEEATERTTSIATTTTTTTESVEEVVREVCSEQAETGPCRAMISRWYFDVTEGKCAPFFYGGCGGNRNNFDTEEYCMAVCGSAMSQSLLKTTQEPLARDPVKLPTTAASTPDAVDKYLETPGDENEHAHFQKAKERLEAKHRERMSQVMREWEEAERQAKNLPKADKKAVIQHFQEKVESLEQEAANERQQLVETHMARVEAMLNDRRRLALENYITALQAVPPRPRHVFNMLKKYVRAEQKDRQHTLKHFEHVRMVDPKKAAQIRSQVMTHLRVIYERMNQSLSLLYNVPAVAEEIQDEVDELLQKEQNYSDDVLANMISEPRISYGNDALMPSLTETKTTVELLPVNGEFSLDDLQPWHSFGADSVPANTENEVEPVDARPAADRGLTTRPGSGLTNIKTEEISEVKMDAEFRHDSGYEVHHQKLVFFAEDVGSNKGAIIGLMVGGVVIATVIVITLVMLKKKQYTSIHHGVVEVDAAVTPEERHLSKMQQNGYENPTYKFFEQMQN
T2 sequence (P06276 whole entry): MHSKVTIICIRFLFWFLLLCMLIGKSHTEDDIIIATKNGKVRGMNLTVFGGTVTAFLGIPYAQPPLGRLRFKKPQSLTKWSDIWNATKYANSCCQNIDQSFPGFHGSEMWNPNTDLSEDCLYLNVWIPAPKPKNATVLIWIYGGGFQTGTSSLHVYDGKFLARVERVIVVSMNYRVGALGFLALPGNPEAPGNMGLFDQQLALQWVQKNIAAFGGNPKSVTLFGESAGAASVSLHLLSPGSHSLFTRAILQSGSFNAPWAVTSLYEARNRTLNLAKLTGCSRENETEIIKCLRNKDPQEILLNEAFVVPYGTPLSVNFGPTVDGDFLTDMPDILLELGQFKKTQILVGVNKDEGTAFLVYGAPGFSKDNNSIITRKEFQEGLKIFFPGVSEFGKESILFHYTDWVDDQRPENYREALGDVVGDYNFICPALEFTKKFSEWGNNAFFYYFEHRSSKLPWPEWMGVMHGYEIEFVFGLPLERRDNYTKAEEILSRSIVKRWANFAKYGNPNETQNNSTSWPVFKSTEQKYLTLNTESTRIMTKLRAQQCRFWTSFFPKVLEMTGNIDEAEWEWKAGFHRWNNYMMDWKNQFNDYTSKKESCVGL
Cholinesterase (Equus caballus, UniProt P81908), sequence (P81908 whole entry): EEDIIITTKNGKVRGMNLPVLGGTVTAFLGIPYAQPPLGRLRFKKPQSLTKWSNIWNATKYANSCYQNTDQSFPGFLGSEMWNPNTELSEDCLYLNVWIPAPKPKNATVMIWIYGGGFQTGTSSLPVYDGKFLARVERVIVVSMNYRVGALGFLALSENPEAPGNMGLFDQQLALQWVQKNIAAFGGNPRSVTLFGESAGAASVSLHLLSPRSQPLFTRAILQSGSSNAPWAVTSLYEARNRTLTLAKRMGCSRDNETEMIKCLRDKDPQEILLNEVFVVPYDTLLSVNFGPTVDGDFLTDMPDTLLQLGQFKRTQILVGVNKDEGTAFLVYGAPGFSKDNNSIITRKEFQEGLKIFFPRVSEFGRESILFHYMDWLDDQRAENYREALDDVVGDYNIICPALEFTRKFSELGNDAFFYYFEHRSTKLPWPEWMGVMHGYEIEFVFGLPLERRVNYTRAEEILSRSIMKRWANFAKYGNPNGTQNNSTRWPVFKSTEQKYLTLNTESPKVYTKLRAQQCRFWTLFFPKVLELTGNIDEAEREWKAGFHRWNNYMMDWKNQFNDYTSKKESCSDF
Acetylcholinesterase (Homo sapiens, UniProt P22303), sequence (P22303 whole entry): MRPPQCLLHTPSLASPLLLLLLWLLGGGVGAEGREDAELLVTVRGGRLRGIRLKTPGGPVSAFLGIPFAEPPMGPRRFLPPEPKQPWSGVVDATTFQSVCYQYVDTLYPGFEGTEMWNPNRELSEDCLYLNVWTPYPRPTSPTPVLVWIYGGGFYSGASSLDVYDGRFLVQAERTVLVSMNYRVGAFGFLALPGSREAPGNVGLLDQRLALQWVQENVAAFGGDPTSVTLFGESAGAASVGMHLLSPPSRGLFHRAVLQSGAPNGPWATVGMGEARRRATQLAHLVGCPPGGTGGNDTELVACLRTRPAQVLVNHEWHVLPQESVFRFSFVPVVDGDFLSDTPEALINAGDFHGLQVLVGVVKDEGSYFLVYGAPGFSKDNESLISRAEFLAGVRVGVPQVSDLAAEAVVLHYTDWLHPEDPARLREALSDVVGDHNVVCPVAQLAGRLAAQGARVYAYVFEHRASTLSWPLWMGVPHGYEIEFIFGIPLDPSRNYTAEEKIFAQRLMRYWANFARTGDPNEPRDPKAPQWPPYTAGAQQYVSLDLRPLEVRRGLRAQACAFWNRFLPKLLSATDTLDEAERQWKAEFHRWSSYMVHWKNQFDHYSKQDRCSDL
Acetylcholinesterase (Electrophorus electricus, UniProt O42275), sequence (O42275 whole entry): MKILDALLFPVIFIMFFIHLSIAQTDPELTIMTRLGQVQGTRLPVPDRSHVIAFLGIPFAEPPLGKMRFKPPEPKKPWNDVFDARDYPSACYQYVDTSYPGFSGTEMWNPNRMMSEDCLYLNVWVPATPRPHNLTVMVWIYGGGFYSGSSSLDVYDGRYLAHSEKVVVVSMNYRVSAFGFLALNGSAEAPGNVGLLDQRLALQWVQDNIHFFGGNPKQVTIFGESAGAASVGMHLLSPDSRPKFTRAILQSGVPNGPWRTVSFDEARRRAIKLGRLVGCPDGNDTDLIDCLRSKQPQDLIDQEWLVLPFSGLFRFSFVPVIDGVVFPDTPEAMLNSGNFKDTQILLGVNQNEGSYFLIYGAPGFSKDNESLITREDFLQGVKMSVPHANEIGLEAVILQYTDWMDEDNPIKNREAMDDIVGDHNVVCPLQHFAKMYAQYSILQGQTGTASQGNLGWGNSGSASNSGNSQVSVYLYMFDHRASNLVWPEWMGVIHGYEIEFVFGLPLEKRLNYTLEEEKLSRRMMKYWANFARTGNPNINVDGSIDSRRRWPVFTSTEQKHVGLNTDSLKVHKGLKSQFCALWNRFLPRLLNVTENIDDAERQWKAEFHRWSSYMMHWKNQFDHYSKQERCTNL

Compound: C[N+](C)(C)CCNC(=O)/C=C/c1ccc(O)c(O)c1
IC50 (Acetylcholinesterase [2]): 7.3 µM

Compound: COc1ccc(/C=C/C(=O)Nc2cc[n+](Cc3ccc(F)cc3)cc2)cc1OC.[Br-]
inhibition [3]: 65.6%
IC50 (Cholinesterase [4]): 2.6 nM
IC50 (Cholinesterase [5]): 4.4 nM
Activity (PC-12): 66.6%

Compound: O=C(NCc1ccccc1)C(c1cc2ccccc2nc1Cl)N(Cc1ccccc1)C(=O)/C=C/c1ccc(O)c(O)c1 (centres undefined)
inhibition [8]: 62.7%
Activity (SH-SY5Y): 21.87%
Activity [9]: > 77%
Activity [10]: 6.86 equiv

Compound: COc1cc(/C=C/C(=O)O[C@H]2C[C@H]3O[C@H](OC(=O)Nc4ccccc4)C[C@H]3O2)ccc1O
IC50 (Acetylcholinesterase [11]): 27.1 µM
IC50 (Cholinesterase [12]): 29.2 µM

The next lines start with the values.

IC50 [1]: 13 nM
Compound: O=C(/C=C/c1ccc(O)cc1)OCCc1ccccc1

Ki [6]: 110 nM
Ki [7]: 1950 nM
Compound: COc1ccc(/C=C/C(=O)NCCc2ccccc2)cc1O
